The nature of data set [1]: Cytotoxicity against human HeLa cells after 2 hrs by Draq staining based assay. It is filed as cell-based.
Another data set has as its system Lassa virus. The data set can be described thus: Antiviral activity against Lassa virus infected in human HuH7 cells pretreated for 2 to 3 hrs followed by viral infection measured after 3 days by fluorescence assay. As to conditions: Mammarenavirus lassaense, Huh-7. In kind it is functional, cell-based.
Data set [2] relates to Ebolavirus. The data set can be described thus: Antiviral activity against Sudan virus Gulu infected in human HeLa cells preincubated with cells for 2 hrs followed by viral infection measured after 48 hrs by immunostaining based assay. In kind it is functional, cell-based, Sudan ebolavirus. To be noted: Orthoebolavirus.
The next data set concerns Huh-7. In words: Cytotoxicity against human HuH7 cells after 2 to 3 hrs by CellTiter-Glo assay. In kind it is cell-based. (In general: ATP-based viability assays read luminescence as a measure of living cells.)
A further data set deals with Marburgvirus. In words: Antiviral activity against Marburg virus Ci67 infected in human HeLa cells preincubated for 2 hrs followed by viral infection measured after 15 to 20 hrs by Draq staining based assay. In kind it is functional, cell-based, Lake Victoria marburgvirus - Ci67. To be noted: Orthomarburgvirus.
Another data set relates to Rift Valley fever virus. In words: Antiviral activity against Rift Valley fever virus infected in human HeLa cells preincubated for 2 to 3 hrs followed by viral infection measured after 3 days by fluorescence assay. It is filed as functional, cell-based.
The subject of data set [3] is Ebolavirus. The data set can be described thus: Antiviral activity against Ebolavirus Makona infected in human HeLa cells preincubated for 2 hrs followed by viral infection measured after 15 to 20 hrs by Draq5 staining based assay. To be noted: Orthoebolavirus. It is filed as functional, cell-based, Zaire ebolavirus Makona.

pEC50: −log10 of the molar value.

The term CC50 denotes the concentration at which the toxic effect on the cells reaches its halfway point. Broadly, the pEC50 is the EC50 on a negative log10 scale, so that one unit is a factor of ten.

Regarding `CCC(CC)COC(=O)[C@H](C)N[P@](=O)(OCCOCn1cnc(-c2cnc(N)nc2OC)c1)Oc1ccccc1`, the CC50 at 2 h in data set [1] was above 100 µM. Besides, the negative-log EC50 (pEC50) was below 4.30 in the data set on Lassa virus; 5.15 in the data set on Ebolavirus [2]; 4.21 in the data set with Marburgvirus; below 4.30 in the data set on Rift Valley fever virus; 4.54 in the data set on Ebolavirus [3]. In addition, in the data set on Huh-7, the cytotoxic concentration (CC50) was above 50 µM.

In the case of `COc1nc(N)ncc1-c1cn(COCCOC(C)=O)cn1`, in data set [1], the 50% cytotoxic concentration (CC50) at 2 h is above 100 µM. Further, the negative-log EC50 (pEC50) in the data set with Ebolavirus [2] is 4.70; in the data set on Marburgvirus it was 4.15; with Ebolavirus [3], 4.36.

Turning to `COc1nc(N)ncc1-c1cn(COCCO)cn1`, the CC50 at 2 h in data set [1] is above 100 µM. The pEC50 in the data set on Lassa virus was below 4.30; in the data set with Ebolavirus [2] it was below 4.00; in the data set with Marburgvirus, below 4.00; in the data set on Rift Valley fever virus it was below 4.30; in the data set on Ebolavirus [3], below 4.00. Further, the CC50 in the data set with Huh-7 was above 50 µM.

For the origin of these results see ChEMBL document CHEMBL4020744 (Bioorg Med Chem Lett, 2017).
